Target: T1, human monoacylglycerol lipase (MGL) (Homo sapiens, UniProt Q99685)
T1 sequence (Q99685 1-303): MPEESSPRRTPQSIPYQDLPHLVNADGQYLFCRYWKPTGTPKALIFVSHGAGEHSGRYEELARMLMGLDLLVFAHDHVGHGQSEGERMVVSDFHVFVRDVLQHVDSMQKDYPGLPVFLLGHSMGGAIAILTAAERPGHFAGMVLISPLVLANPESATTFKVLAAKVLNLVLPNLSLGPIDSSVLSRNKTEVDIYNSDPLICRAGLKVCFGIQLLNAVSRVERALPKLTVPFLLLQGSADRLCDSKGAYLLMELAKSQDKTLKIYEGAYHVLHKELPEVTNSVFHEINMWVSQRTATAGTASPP
Type: biochemical

Compound `CC[C@H](CC[C@@H](C)[C@H]1CC[C@H]2[C@@H]3CC=C4C[C@@H](O)CC[C@]4(C)[C@H]3CC[C@]12C)C(C)C` [beta-sitosterol] has an IC50 of 19.5 µM.

— article PMC11436673 (Journal of Experimental Pharmacology, 2024)
